≈ marks a conversion by molar mass, not a printed value. Calls of active or inactive are those of the source. No cut-off for these calls is given here.
What was measured:
Candida parapsilosis = assay: Antifungal activity against Candida parapsilosis ATCC 22019 assessed as inhibition of fungal growth by CLSI protocol based microdilution method; type: functional; conditions: Lodderomyces parapsilosis
Nakaseomyces glabratus = assay: Antifungal activity against Candida glabrata assessed as inhibition of fungal growth by CLSI protocol based microdilution method; type: functional
Pichia kudriavzevii = assay: Antifungal activity against Candida krusei AS 2.1045 assessed as inhibition of fungal growth by CLSI protocol based microdilution method; type: functional
Candida tropicalis = assay: Antifungal activity against Candida tropicalis CGMCC 2.3739 assessed as inhibition of fungal growth by CLSI protocol based microdilution method; type: functional
Aspergillus fumigatus = assay: Antifungal activity against Aspergillus fumigatus CGMCC 3.7795 assessed as inhibition of fungal growth by CLSI protocol based microdilution method; type: functional
[1] = Metabolic stability in mouse liver microsomes assessed as half life; type: ADME, Microsome
Candida albicans [2] = assay: Antifungal activity against fluconazole-resistant Candida albicans CaR assessed as inhibition of fungal growth by CLSI based microdilution method; type: functional
Candida albicans [3] = assay: Antifungal activity against fluconazole-resistant Candida albicans 17 assessed as inhibition of fungal growth by CLSI based microdilution method; type: functional
Candida albicans [4] = assay: Antifungal activity against fluconazole-resistant Candida albicans 904 assessed as inhibition of fungal growth by CLSI based microdilution method; type: functional
Candida albicans [5] = assay: Antifungal activity against fluconazole-resistant Candida albicans 901 assessed as inhibition of fungal growth by CLSI based microdilution method; type: functional
Candida albicans [6] = assay: Antifungal activity against Candida albicans assessed as inhibition of fungal growth by CLSI protocol based microdilution method; type: functional
Candida albicans [7] = assay: Ratio of MFC for fungicidal activity against Candida albicans to MIC for antifungal activity against Candida albicans; type: functional
[8] = biological target: Voltage-gated inwardly rectifying potassium channel KCNH2 (Homo sapiens, UniProt Q12809); assay: Inhibition of hERG1; type: toxicity
Voltage-gated inwardly rectifying potassium channel KCNH2, sequence (Q12809 whole entry): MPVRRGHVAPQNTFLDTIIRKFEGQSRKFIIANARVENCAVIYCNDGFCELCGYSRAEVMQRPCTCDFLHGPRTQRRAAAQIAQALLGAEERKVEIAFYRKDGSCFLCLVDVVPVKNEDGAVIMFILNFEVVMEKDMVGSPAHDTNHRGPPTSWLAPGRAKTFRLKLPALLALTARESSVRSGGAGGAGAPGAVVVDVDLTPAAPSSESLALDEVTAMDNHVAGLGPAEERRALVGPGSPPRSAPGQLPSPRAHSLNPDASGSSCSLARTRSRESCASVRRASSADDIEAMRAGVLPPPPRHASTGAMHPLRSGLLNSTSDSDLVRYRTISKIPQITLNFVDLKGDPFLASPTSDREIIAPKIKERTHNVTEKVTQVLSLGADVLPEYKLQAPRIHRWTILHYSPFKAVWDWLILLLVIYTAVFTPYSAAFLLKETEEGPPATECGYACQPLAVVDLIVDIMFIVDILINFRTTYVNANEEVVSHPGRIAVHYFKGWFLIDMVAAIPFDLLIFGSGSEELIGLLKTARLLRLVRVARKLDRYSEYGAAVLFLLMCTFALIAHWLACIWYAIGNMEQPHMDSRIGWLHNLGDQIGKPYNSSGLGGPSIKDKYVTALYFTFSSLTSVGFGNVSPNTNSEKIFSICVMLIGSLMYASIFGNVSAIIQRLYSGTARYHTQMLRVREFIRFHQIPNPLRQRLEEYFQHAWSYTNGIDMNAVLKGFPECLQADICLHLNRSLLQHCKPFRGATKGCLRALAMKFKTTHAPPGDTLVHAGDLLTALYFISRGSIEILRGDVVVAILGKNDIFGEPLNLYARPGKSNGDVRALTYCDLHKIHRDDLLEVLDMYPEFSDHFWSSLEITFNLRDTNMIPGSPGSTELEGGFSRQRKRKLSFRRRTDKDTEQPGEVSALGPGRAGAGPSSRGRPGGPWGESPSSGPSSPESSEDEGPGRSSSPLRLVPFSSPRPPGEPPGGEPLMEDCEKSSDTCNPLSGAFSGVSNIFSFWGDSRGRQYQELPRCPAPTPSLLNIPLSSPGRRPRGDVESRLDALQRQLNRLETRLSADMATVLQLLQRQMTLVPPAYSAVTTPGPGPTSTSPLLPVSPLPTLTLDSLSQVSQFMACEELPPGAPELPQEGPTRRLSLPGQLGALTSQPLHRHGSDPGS

[9] = Acute toxicity in rat assessed as Low-observed adverse effect level at po administration; type: organism-based; conditions: in vivo
[10] = biological target: T1, Lanosterol 14-alpha demethylase (Candida albicans (strain SC5314 / ATCC MYA-2876) (Yeast), UniProt P10613); assay: Inhibition of CYP51 in Candida albicans SC5314 assessed as reduction in ergosterol content at 0.031 ug/ml incubated for 24 hrs by GC-MS analysis relative to control; conditions: at 0.031 µg/mL
T1 sequence (P10613 whole entry): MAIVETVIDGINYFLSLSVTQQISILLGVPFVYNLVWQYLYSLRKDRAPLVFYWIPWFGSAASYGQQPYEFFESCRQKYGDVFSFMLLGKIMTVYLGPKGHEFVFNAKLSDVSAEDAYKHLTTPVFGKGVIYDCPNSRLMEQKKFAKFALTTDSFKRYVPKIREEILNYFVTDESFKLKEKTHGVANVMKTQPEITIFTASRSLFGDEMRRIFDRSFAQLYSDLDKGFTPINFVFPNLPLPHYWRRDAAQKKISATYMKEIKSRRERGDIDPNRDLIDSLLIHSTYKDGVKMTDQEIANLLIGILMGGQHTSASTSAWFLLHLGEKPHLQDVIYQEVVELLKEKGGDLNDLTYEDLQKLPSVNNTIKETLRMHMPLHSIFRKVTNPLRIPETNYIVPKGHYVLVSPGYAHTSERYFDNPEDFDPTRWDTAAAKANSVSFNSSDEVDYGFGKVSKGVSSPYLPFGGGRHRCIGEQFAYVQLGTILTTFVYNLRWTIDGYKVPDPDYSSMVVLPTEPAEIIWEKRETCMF

[11] = biological target: T1, Lanosterol 14-alpha demethylase; assay: Inhibition of CYP51 in Candida albicans SC5314 assessed as increase in lanosterol level at 0.031 ug/ml incubated for 24 hrs by GC-MS analysis relative to control; conditions: at 0.031 µg/mL
[12] = biological target: T1, Lanosterol 14-alpha demethylase; assay: Inhibition of CYP51 in Candida albicans SC5314 assessed as increase in eburicol level at 0.031 ug/ml incubated for 24 hrs by GC-MS analysis relative to control; conditions: at 0.031 µg/mL
Candida albicans [13] = assay: Antifungal activity against Candida albicans CPCC400616 assessed as inhibition of hyphae formation at 2 ug/ml incubated for 4 hrs by inverted microscopic analysis; type: functional, organism-based; conditions: dose 2.0 µg/ml
Candida albicans [14] = assay: Antifungal activity against fluconazole-resistant Candida albicans 904 assessed as inhibition of hyphae formation at 16 ug/ml incubated for 4 hrs by inverted microscopic analysis; type: functional, organism-based; conditions: dose 16.0 µg/ml
Candida albicans [15] = assay: Antifungal activity against Candida albicans CPCC400616 assessed as inhibition of fungal biofilm formation incubated for 24 hrs by XTT assay; type: functional, organism-based
Candida albicans [16] = assay: Antifungal activity against fluconazole-resistant Candida albicans 904 assessed as inhibition of fungal biofilm formation incubated for 24 hrs by XTT assay; type: functional, organism-based
Candida albicans [17] = assay: Antifungal activity against Candida albicans CPCC400616 assessed as downregulation of TEC1 gene expression at 2 ug/ml incubated for 12 hrs by RT-PCR analysis; type: functional, organism-based; conditions: dose 2.0 µg/ml
Candida albicans [18] = assay: Antifungal activity against Candida albicans CPCC400616 assessed as downregulation of EFG1 gene expression at 2 ug/ml incubated for 12 hrs by RT-PCR analysis; type: functional, organism-based; conditions: dose 2.0 µg/ml
Candida albicans [19] = assay: Antifungal activity against Candida albicans CPCC400616 assessed as downregulation of CPH1 gene expression at 2 ug/ml incubated for 12 hrs by RT-PCR analysis; type: functional, organism-based; conditions: dose 2.0 µg/ml
Candida albicans [20] = assay: Antifungal activity against fluconazole-resistant Candida albicans 904 assessed as downregulation of CPH1 gene expression at 16 ug/ml incubated for 12 hrs by RT-PCR analysis; type: functional, organism-based; conditions: dose 16.0 µg/ml
Candida albicans [21] = assay: Antifungal activity against fluconazole-resistant Candida albicans 904 assessed as downregulation of ERG11 gene expression at 16 ug/ml incubated for 16 hrs by RT-PCR analysis; type: functional, organism-based; conditions: dose 16.0 µg/ml
Candida albicans [22] = assay: Antifungal activity against fluconazole-resistant Candida albicans 904 assessed as downregulation of CDR1 gene expression at 16 ug/ml incubated for 16 hrs by RT-PCR analysis; type: functional, organism-based; conditions: dose 16.0 µg/ml
Candida albicans [23] = assay: Antifungal activity against fluconazole-resistant Candida albicans 904 assessed as downregulation of MDR1 gene expression at 16 ug/ml incubated for 16 hrs by RT-PCR analysis; type: functional, organism-based; conditions: dose 16.0 µg/ml
Candida albicans [24] = assay: Antifungal activity against fluconazole-resistant Candida albicans 904 assessed as increase in intracellular ROS production at 32 ug/ml incubated for 4 hrs by DCFH-DA probe based fluorescence spectrophotometric analysis; type: functional, organism-based; conditions: dose 32.0 µg/ml
Candida albicans [25] = assay: Antifungal activity against fluconazole-resistant Candida albicans 904 assessed as increase in intracellular fluorescence intensity at 32 ug/ml incubated for 4 hrs by fluorescence inverted microscopic analysis; type: functional, organism-based; conditions: dose 32.0 µg/ml

In the case of `CCCCNC(=O)/C=C/c1ccc(COC(Cn2ccnc2)c2ccc(Cl)cc2Cl)cc1` (stereo not given), the MIC (Candida parapsilosis) is reported as 0.06 µg/mL (≈ 0.127 µM), the MIC (Nakaseomyces glabratus) is reported as 4 µg/mL (≈ 8.47 µM) and the MIC (Pichia kudriavzevii) is reported as 2 µg/mL (≈ 4.23 µM). The MIC (Candida tropicalis) was 64 µg/mL (≈ 135 µM), the MIC (Aspergillus fumigatus) was 0.5 µg/mL (≈ 1.06 µM) and the half-life [1] was 60.3 min. The MIC (Candida albicans [2]) was 1 µg/mL (≈ 2.12 µM), the MIC (Candida albicans [3]) was 4 µg/mL (≈ 8.47 µM) and the MIC (Candida albicans [4]) was 1 µg/mL (≈ 2.12 µM). For the same molecule, the MIC (Candida albicans [5]) was 1 µg/mL (≈ 2.12 µM), the MIC (Candida albicans [6]) was 2 µg/mL (≈ 4.23 µM) and the Ratio (Candida albicans [7]) was 16. For the same molecule, the “inhibition (INH)” value [8] was “Not Active”, the LOAEL [9] was 1.138 mg/kg and the “inhibition (INH)” value [10] was 0.67%. For the same molecule, the “inhibition (INH)” value [11] was “Active”, the “inhibition (INH)” value [12] was “Active” and the Activity (Candida albicans [13]) was “Active”. The Activity (Candida albicans [14]) was “Active”, the Activity (Candida albicans [15]) was “Dose-Dependent Effect” and the Activity (Candida albicans [16]) was “Dose-Dependent Effect”. For the same molecule, the Activity (Candida albicans [17]) was “Active”, the Activity (Candida albicans [18]) was “Active” and the Activity (Candida albicans [19]) was “Active”. The Activity (Candida albicans [20]) was “Active”, the Activity (Candida albicans [21]) was “Active” and the Activity (Candida albicans [22]) was “Active”. The Activity (Candida albicans [23]) was “Active”, the Activity (Candida albicans [24]) was “Active” and the Activity (Candida albicans [25]) was “Active”.
`O=C(/C=C/c1ccc(COC(Cn2ccnc2)c2ccc(Cl)cc2Cl)cc1)Nc1ccc(Cl)cc1Cl` (stereo not given) gave an MIC (Candida parapsilosis) of 0.06 µg/mL (≈ 0.107 µM), an MIC (Nakaseomyces glabratus) of 1 µg/mL (≈ 1.78 µM) and an MIC (Pichia kudriavzevii) of 0.5 µg/mL (≈ 0.891 µM). The MIC (Candida tropicalis) was 2 µg/mL (≈ 3.56 µM), the MIC (Aspergillus fumigatus) was 0.5 µg/mL (≈ 0.891 µM) and the half-life [1] was 29.6 min. The MIC (Candida albicans [2]) was 1 µg/mL (≈ 1.78 µM), the MIC (Candida albicans [3]) was 0.25 µg/mL (≈ 0.445 µM) and the MIC (Candida albicans [4]) was 1 µg/mL (≈ 1.78 µM). The MIC (Candida albicans [5]) was 1 µg/mL (≈ 1.78 µM), the MIC (Candida albicans [6]) was 1 µg/mL (≈ 1.78 µM) and the Ratio (Candida albicans [7]) was 32. For the same molecule, the “inhibition (INH)” value [8] was “Active”, the LOAEL [9] was 0.452 mg/kg and the “inhibition (INH)” value [10] was 1.25%. For the same molecule, the “inhibition (INH)” value [11] was “Active”, the “inhibition (INH)” value [12] was “Active” and the Activity (Candida albicans [13]) was “Active”. For the same molecule, the Activity (Candida albicans [14]) was “Active”, the Activity (Candida albicans [15]) was “Dose-Dependent Effect” and the Activity (Candida albicans [16]) was “Dose-Dependent Effect”. The Activity (Candida albicans [17]) was “Active”, the Activity (Candida albicans [18]) was “Active” and the Activity (Candida albicans [19]) was “Active”. The Activity (Candida albicans [20]) was “Active”, the Activity (Candida albicans [21]) was “Active” and the Activity (Candida albicans [22]) was “Active”. For the same molecule, the Activity (Candida albicans [23]) was “Active”, the Activity (Candida albicans [24]) was “Active” and the Activity (Candida albicans [25]) was “Active”.

— ChEMBL document CHEMBL5550210, “Discovery of Novel α,β-Unsaturated Amide Derivatives as Candidate Antifungals to Overcome Fungal Resistance” (J Med Chem, 2024)
